The values below come from patent publication US8354431B2, “Aryl carboxylic acid cyclohexyl amide derivatives” (Novartis AG, priority 2007, dated 2013).

One assay deals with T1, Human CCR5 (Homo sapiens, UniProt P51681).
T1 construct: expressed in transfected cells; host or cells: CHO K1
Nature of the assay: CCR5 membrane binding assay ([I-125]MIP-1α). The settings on record: table does not name the assay; b437 says 'in these assays'. The method, then: Human CCR5 is used to generate stable transfectants in CHO K1 cells. Membranes prepared from these CCR5 transfectants are used in a radioligand binding assay using 125-1-MIP-1α as a ligand and the compounds of formula I are tested for inhibitory activity. The data are reported as IC50, i.e. the concentration of compound required to achieve 50% inhibition of [I-125]MIP-1α binding. In this assay, compounds of formula I have an IC50 between 0.004 and 10 μM.

Another assay deals with T2, hCCR2b (Homo sapiens, UniProt P41597).
T2 construct: expressed in transfected cells; host or cells: CHO-dukX
T2 sequence (P41597 1-360 isoform P41597-2): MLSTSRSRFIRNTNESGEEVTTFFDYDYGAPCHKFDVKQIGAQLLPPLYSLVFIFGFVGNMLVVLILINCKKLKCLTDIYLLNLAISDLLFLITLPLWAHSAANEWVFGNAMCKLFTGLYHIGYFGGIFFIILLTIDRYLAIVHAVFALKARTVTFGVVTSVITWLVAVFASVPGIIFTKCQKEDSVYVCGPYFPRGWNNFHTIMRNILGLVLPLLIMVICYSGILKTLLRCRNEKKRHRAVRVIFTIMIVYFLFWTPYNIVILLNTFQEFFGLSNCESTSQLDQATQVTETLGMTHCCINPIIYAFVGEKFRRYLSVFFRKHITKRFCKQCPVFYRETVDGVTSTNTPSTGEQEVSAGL
Nature of the assay: CCR2 membrane binding assay (SPA, [125I] MCP-1). The settings on record: table does not name the assay; b437 says 'in these assays'. The method, then: Transfected CHO-dukX cells stably expressing the hCCR2b gene are grown in MEM alpha medium to a confluency of between 70 and 80%. After discarding the medium, 30 ml ice-cold physiological buffer solution containing 1 mM EDTA are added and the cells removed from the plate using a scraper. The cell suspension is centrifuged at 800 g for 10′ at 4° C. and the cell pellet resuspended in buffer. Cell lysis is done using a Polytron PTI300D instrument at 28 000 RPM for 2 times 30 seconds on ice. Membranes are collected by centrifugation at 42 000 g for 20 minutes at 4° C. and subjected to a second round of lysis (Polytron, 28 000 RPM, 2×30 seconds on ice). Following centrifugation at 42 000 g for 20 minutes at 4° C. the membranes are resuspended in buffer at a protein concentration of 2 mg/ml and stored at −80° C. Ten millimolar stock solutions of test compounds in 100% DMSO are prepared. Test compounds are further diluted in buffer to yield the four-fold concentrated solutions for the tests that assayed a range of 10^−10 to 10^−5 M. The SPA assay is performed in a final volume of 200 μl per well in 96 well plates. The components are added per well in the following order: • 50 μl Buffer (+/−test compound) • 50 μl Wheat germ agglutinin-SPA beads (1.25 mg/well) in buffer • 50 μl CCR2B membrane suspension diluted with buffer to 0.04 mg/ml (2 μg/well), alternatively 50,000 cells per well • 50 μl [^125I] MCP-1 in buffer (60 pM final concentration, 2.5 μCi/plate)
After addition of all components the plate is sealed and incubated for 90 minutes at room temperature with constant shaking. Following incubation the plate is centrifuged at 1000 RPM in a Sorvall RC3B centrifuge for 4 minutes at room temperature and counted for 3 minutes per well in a TOP COUNT instrument (Packard). The quench-corrected counts are used for the analysis of radioligand binding.

A further assay relates to CCR2 receptor. In words: Receptor occupancy of the CCR2 receptor over time (blood monocytes, FACS). The format is in vivo. The conditions noted are these: dose 10 mg/kg. The method, then:
The Agents of the Invention typically have a favourable pharmacokinetic profile, i.e. such as a relatively fast elimination over time. A faster elimination is typically indicative for an improved tolerability or is typically associable with less side effects. Such may be assessed by determining for example the receptor occupancy of the CCR2 receptor over time.
Receptor occupancy assaying may be performed in 96-well plates. 45 microliters of freshly obtained blood samples are incubated with 5 microliter of a MCP-1 solution (several concentrations for assessing a biding curve). The concentration of said MCP-1 solution is from 0.01 to 100 nanomolar, whereby the dilutions are made in RPMI1640 with glutamax supplemented with 1% nonessential amino acids, sodium pyruvate, penicillin/streptomycin, […] beta-mercaptoethanol and 1% human albumin.
Said incubation is carried out for 30 min at 37° C., and is then stopped by adding 180 microliter BD FACS lysis solution followed by centrifugation. Said lysis addition and centrifugation is repeated once and the remaining cells are then washed with ice cold FACS buffer ([…] containing 2% FCS and 0.1% NaN3). Thereupon, the cells are stained with antibodies for FACS analysis.
The cells are now triple stained with FITC-conjugated anti-CD14, PE-conjugated anti-HLA-DR and APC-conjugated anti-CCR2. The antibodies are diluted into FACS buffer, supplemented with 3 mg/ml juman IgG, and the staining is performed in a total of 25 microliter for 30 min. on ice. The stained cells are washed twice with cold FACS buffer and then analyzed by flow cytometry using a FACScalibur and CellQuest software. The expression of CCR2 on CD-14- and HLA-DR-positive monocytes is determined and expressed as mean fluorescence intensity (MFI). The relative CCR2 expression is expressed as percent of control staining.

T1 sequence (P51681 whole entry): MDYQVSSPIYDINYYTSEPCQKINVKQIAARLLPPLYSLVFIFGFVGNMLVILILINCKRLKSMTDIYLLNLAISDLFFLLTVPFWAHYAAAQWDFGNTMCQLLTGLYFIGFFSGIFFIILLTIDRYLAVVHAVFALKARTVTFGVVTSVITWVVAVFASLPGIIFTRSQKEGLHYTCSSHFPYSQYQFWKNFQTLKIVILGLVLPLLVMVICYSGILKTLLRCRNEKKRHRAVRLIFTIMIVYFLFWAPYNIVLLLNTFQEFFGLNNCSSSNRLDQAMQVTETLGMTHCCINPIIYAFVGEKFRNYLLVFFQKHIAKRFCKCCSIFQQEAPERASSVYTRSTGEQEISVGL

For the compound `CCOCCOc1ccc2c(COc3cccc4[nH]c(C(=O)N[C@H]5CC[C@](O)(CCN6CC[C@H](O)[C@@H](C)C6)CC5)cc34)coc2c1` [Example 16, 4-[6-(2-Ethoxy-ethoxy)-benzofuran-3-ylmethoxy]-1H-indole-2-carboxylic acid {4-hydroxy-4-[2-((3S,4S)-4-hydroxy-3-methyl-piperidin-1-yl)-ethyl]-cyclohexyl}-amide], the 50% inhibitory concentration (IC50) on Human CCR5 amounted to 2.9 nM; at hCCR2b, 0.8 nM. In the assay on CCR2 receptor, the “Receptor blockade After 2 hrs in %” value is 78.1%. In the assay with CCR2 receptor, the “Receptor blockade After 24 hrs in %” value amounted to 21.6%.

`C[C@H]1CN(CC[C@]2(O)CC[C@@H](NC(=O)c3cc4c(OCc5coc6cc(OCC7CC7)ccc56)cccc4[nH]3)CC2)CC[C@@H]1O` [Example 15, 4-(6-Cyclopropylmethoxy-benzofuran-3-ylmethoxy)-1H-indole-2-carboxylic acid {4-hydroxy-4-[2-((3S,4S)-4-hydroxy-3-methyl-piperidin-1-yl)-ethyl]-cyclohexyl}-amide]: the half-maximal inhibitory concentration (IC50) on Human CCR5 worked out at 4.8 nM. The same compound displayed an IC50 at hCCR2b of 0.4 nM. In addition, in the assay with CCR2 receptor, the “Receptor blockade After 2 hrs in %” value stood at 103.2% and the “Receptor blockade After 24 hrs in %” value was 42.6%.

As for `CC(C)OCCOc1ccc2c(COc3cccc4[nH]c(C(=O)N[C@H]5CC[C@](O)(CCN6CC[C@H](O)[C@@H](C)C6)CC5)cc34)coc2c1` [Example 18, 4-[6-(2-Isopropoxy-ethoxy)-benzofuran-3-ylmethoxy]-1H-indole-2-carboxylic acid {4-hydroxy-4-[2-((3S,4S)-4-hydroxy-3-methyl-piperidin-1-yl)-ethyl]-cyclohexyl}-amide], the IC50 on Human CCR5 stood at 3.3 nM. On hCCR2b, this compound came in with an IC50 of 0.2 nM. Moreover, in the assay with CCR2 receptor, the “Receptor blockade After 2 hrs in %” value is 88.2% and the “Receptor blockade After 24 hrs in %” value was 43.5%.
